According to the NIST ThermoML archive (doi:10.1016/j.jct.2017.02.023):

Legend:
[1] = refractive index (Na D-line) (dimensionless); xn = mol fraction of the nth substance listed; conditions: 81.5 kPa, Liquid, Standard Abbe refractometry
[2] = xn = mol fraction of the nth substance listed; conditions: 81.5 kPa, Liquid, Vibrating tube method

CNC1CCCCC1 [N-methylcyclohexylamine] + CCCCC(C)O
Conditions | mass density, 298.15 K [kg/m3] | mass density, 308.15 K [kg/m3] | mass density, 318.15 K [kg/m3] | mass density, 328.15 K [kg/m3] | refractive index, 298.15 K | refractive index, 308.15 K | refractive index, 318.15 K | refractive index, 328.15 K
[1], x2 = 0 | – | – | – | – | 1.45306 | 1.44812 | 1.4431 | 1.43809
[1], x2 = 0.0915 | – | – | – | – | 1.45049 | 1.44581 | 1.44104 | 1.43628
[1], x2 = 0.1814 | – | – | – | – | 1.4477 | 1.44305 | 1.43835 | 1.43364
[1], x2 = 0.2693 | – | – | – | – | 1.445 | 1.44038 | 1.43572 | 1.43103
[1], x2 = 0.3559 | – | – | – | – | 1.44229 | 1.4377 | 1.43309 | 1.42844
[1], x2 = 0.44 | – | – | – | – | 1.43938 | 1.43484 | 1.43029 | 1.42569
[1], x2 = 0.5256 | – | – | – | – | 1.43598 | 1.43151 | 1.42702 | 1.42247
[1], x2 = 0.608 | – | – | – | – | 1.43233 | 1.42789 | 1.42346 | 1.41895
[1], x2 = 0.6858 | – | – | – | – | 1.42866 | 1.42425 | 1.41985 | 1.41537
[1], x2 = 0.7668 | – | – | – | – | 1.42478 | 1.42041 | 1.41606 | 1.41162
[1], x2 = 0.8463 | – | – | – | – | 1.42103 | 1.4167 | 1.4124 | 1.40799
[1], x2 = 0.9235 | – | – | – | – | 1.41731 | 1.41299 | 1.4087 | 1.40428
[2], x2 = 0 | 865.2 | 856.57 | 847.67 | 838.68 | – | – | – | –
[2], x2 = 0.0915 | 861.23 | 852.73 | 843.97 | 835.05 | – | – | – | –
[2], x2 = 0.1814 | 857.43 | 848.96 | 840.23 | 831.33 | – | – | – | –
[2], x2 = 0.2693 | 853.71 | 845.27 | 836.53 | 827.62 | – | – | – | –
[2], x2 = 0.3559 | 849.84 | 841.4 | 832.77 | 823.77 | – | – | – | –
[2], x2 = 0.44 | 845.7 | 837.27 | 828.7 | 819.71 | – | – | – | –
[2], x2 = 0.5256 | 841.05 | 832.6 | 824.08 | 815.12 | – | – | – | –
[2], x2 = 0.608 | 836.06 | 827.68 | 819.22 | 810.28 | – | – | – | –
[2], x2 = 0.6858 | 831.06 | 822.74 | 814.31 | 805.47 | – | – | – | –
[2], x2 = 0.7668 | 825.76 | 817.47 | 809.16 | 800.26 | – | – | – | –
[2], x2 = 0.8463 | 820.48 | 812.27 | 804.01 | 795.06 | – | – | – | –
[2], x2 = 0.9235 | 815.36 | 807.2 | 798.91 | 789.93 | – | – | – | –

CNC1CCCCC1 [N-methylcyclohexylamine] + CCCCCC(C)O
Conditions | mass density, 298.15 K [kg/m3] | mass density, 308.15 K [kg/m3] | mass density, 318.15 K [kg/m3] | mass density, 328.15 K [kg/m3] | refractive index, 298.15 K | refractive index, 308.15 K | refractive index, 318.15 K | refractive index, 328.15 K
[1], x2 = 0 | – | – | – | – | 1.45306 | 1.44812 | 1.4431 | 1.43809
[1], x2 = 0.0812 | – | – | – | – | 1.45091 | 1.44613 | 1.44128 | 1.43645
[1], x2 = 0.1624 | – | – | – | – | 1.44856 | 1.44387 | 1.4391 | 1.43432
[1], x2 = 0.2448 | – | – | – | – | 1.44622 | 1.44158 | 1.43686 | 1.43214
[1], x2 = 0.3273 | – | – | – | – | 1.44391 | 1.43933 | 1.43466 | 1.42997
[1], x2 = 0.4098 | – | – | – | – | 1.44151 | 1.43699 | 1.43236 | 1.42773
[1], x2 = 0.486 | – | – | – | – | 1.43911 | 1.43464 | 1.43007 | 1.4255
[1], x2 = 0.5764 | – | – | – | – | 1.43598 | 1.43158 | 1.42708 | 1.42258
[1], x2 = 0.6517 | – | – | – | – | 1.43316 | 1.42882 | 1.42438 | 1.41996
[1], x2 = 0.7435 | – | – | – | – | 1.42959 | 1.42534 | 1.421 | 1.41664
[1], x2 = 0.8282 | – | – | – | – | 1.42631 | 1.42213 | 1.41786 | 1.41356
[1], x2 = 0.9132 | – | – | – | – | 1.423 | 1.41886 | 1.41462 | 1.41037
[2], x2 = 0 | 865.2 | 856.57 | 847.67 | 838.68 | – | – | – | –
[2], x2 = 0.0812 | 861.21 | 852.71 | 843.93 | 835.06 | – | – | – | –
[2], x2 = 0.1624 | 857.38 | 848.98 | 840.27 | 831.44 | – | – | – | –
[2], x2 = 0.2448 | 853.62 | 845.28 | 836.62 | 827.83 | – | – | – | –
[2], x2 = 0.3273 | 849.83 | 841.57 | 832.96 | 824.22 | – | – | – | –
[2], x2 = 0.4098 | 845.9 | 837.7 | 829.15 | 820.48 | – | – | – | –
[2], x2 = 0.486 | 842.05 | 833.91 | 825.44 | 816.83 | – | – | – | –
[2], x2 = 0.5764 | 837.18 | 829.14 | 820.75 | 812.23 | – | – | – | –
[2], x2 = 0.6517 | 832.93 | 824.98 | 816.67 | 808.22 | – | – | – | –
[2], x2 = 0.7435 | 827.66 | 819.81 | 811.59 | 803.21 | – | – | – | –
[2], x2 = 0.8282 | 822.84 | 815.09 | 806.94 | 798.61 | – | – | – | –
[2], x2 = 0.9132 | 818.13 | 810.46 | 802.36 | 794.07 | – | – | – | –

CNC1CCCCC1 [N-methylcyclohexylamine] + CCCCCCC(C)O
Conditions | mass density, 298.15 K [kg/m3] | mass density, 308.15 K [kg/m3] | mass density, 318.15 K [kg/m3] | mass density, 328.15 K [kg/m3] | refractive index, 298.15 K | refractive index, 308.15 K | refractive index, 318.15 K | refractive index, 328.15 K
[1], x2 = 0 | – | – | – | – | 1.45306 | 1.44812 | 1.4431 | 1.43809
[1], x2 = 0.0727 | – | – | – | – | 1.45123 | 1.44643 | 1.44156 | 1.43676
[1], x2 = 0.148 | – | – | – | – | 1.44931 | 1.44459 | 1.43978 | 1.43507
[1], x2 = 0.2246 | – | – | – | – | 1.44739 | 1.44272 | 1.43794 | 1.43327
[1], x2 = 0.3025 | – | – | – | – | 1.44545 | 1.44084 | 1.43612 | 1.43148
[1], x2 = 0.3826 | – | – | – | – | 1.44348 | 1.43892 | 1.43425 | 1.42963
[1], x2 = 0.4636 | – | – | – | – | 1.44143 | 1.43692 | 1.43233 | 1.42778
[1], x2 = 0.5484 | – | – | – | – | 1.43898 | 1.43456 | 1.43003 | 1.42554
[1], x2 = 0.6332 | – | – | – | – | 1.43641 | 1.43207 | 1.42763 | 1.42323
[1], x2 = 0.7205 | – | – | – | – | 1.4337 | 1.42942 | 1.42503 | 1.42073
[1], x2 = 0.8128 | – | – | – | – | 1.43079 | 1.42658 | 1.42227 | 1.41802
[1], x2 = 0.9052 | – | – | – | – | 1.42779 | 1.42366 | 1.41941 | 1.41523
[2], x2 = 0 | 865.2 | 856.57 | 847.67 | 838.68 | – | – | – | –
[2], x2 = 0.0727 | 861.37 | 852.86 | 844.07 | 835.18 | – | – | – | –
[2], x2 = 0.148 | 857.59 | 849.18 | 840.45 | 831.62 | – | – | – | –
[2], x2 = 0.2246 | 853.95 | 845.6 | 836.92 | 828.14 | – | – | – | –
[2], x2 = 0.3025 | 850.34 | 842.06 | 833.44 | 824.7 | – | – | – | –
[2], x2 = 0.3826 | 846.62 | 838.42 | 829.86 | 821.17 | – | – | – | –
[2], x2 = 0.4636 | 842.77 | 834.65 | 826.15 | 817.53 | – | – | – | –
[2], x2 = 0.5484 | 838.61 | 830.58 | 822.16 | 813.61 | – | – | – | –
[2], x2 = 0.6332 | 834.36 | 826.43 | 818.08 | 809.6 | – | – | – | –
[2], x2 = 0.7205 | 829.99 | 822.17 | 813.9 | 805.49 | – | – | – | –
[2], x2 = 0.8128 | 825.54 | 817.82 | 809.62 | 801.27 | – | – | – | –
[2], x2 = 0.9052 | 821.3 | 813.66 | 805.52 | 797.23 | – | – | – | –
